Source: patent US20230339981A1, “KRAS G12D MODULATING COMPOUNDS” (priority 2022, published 2023)

Key:
GDP-loaded KRAS G12D = GDP-loaded KRAS G12D (Homo sapiens (Human), UniProt P01116, G12D); experiment: KRAS G12D (GDP) biochemical assay (TR-FRET probe displacement); assay type: binding; settings: 2 hours
Summary of the method: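 Compound pre-incubated 30 min with GDP-loaded KRAS G12D in 50 mM Hepes pH 7.4, 150 mM NaCl, 5 mM MgCl2, 0.005% Tween-20, then Eu-streptavidin and TR-FRET probe added. After 2 h at room temperature, TR-FRET ratio read; IC50 is 50% ratio decrease, sigmoidal fit.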

GP2D (KRAS G12D) cells = experiment: 2D cell viability assay (CellTiter-Glo); assay type: cell-based; settings: GP2d, 96 h, 4 days
Summary of the method: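 GP2D (KRAS G12D) cells, 1000/well in RPMI + 10% FBS, were plated onto compound (1:3 DMSO series) and grown 4 days at 37 °C, 5% CO2 in 2D. CellTiter-Glo luminescence was read; EC50 is the concentration giving 50% signal decrease, from sigmoidal fit.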

Sequence of GDP-loaded KRAS G12D (P01116-2 other isoform, or with tags, fused parts or gaps G12D): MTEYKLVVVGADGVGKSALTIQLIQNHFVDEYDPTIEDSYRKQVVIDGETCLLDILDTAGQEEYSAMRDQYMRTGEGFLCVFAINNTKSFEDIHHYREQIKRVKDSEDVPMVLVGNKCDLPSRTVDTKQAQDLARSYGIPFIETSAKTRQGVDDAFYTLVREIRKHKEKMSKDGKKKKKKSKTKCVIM

| SMILES | IC50 (GDP-loaded KRAS G12D) | EC50 (GP2D (KRAS G12D) cells) |
| --- | --- | --- |
| C#Cc1c(F)ccc2cccc(-c3nc4c5c(nc(OC[C@@]67CCCN6[C@H](COc6ccnc(C(F)F)n6)CC7)nc5c3F)N3C[C@H]5CC[C@H](N5)[C@H]3CCC4)c12 [Example 208, (6aR,7S,10R)-13-(((3S,7aS)-3-(((2-(difluoromethyl)pyrimidin-4-yl)oxy)methyl)tetrahydro-1H-pyrrolizin-7a(5H)-yl)methoxy)-2-(8-ethynyl-7-fluoronaphthalen-1-yl)-1-fluoro-5,6,6a,7,8,9,10,11-octahydro-4H-3,11a,12,14,15-pentaaza-7,10-methanocyclohepta[4,5]cycloocta[1,2,3-de]naphthalene] | 0.09 nM | 3.3 nM |
| Oc1cc(-c2nc3c4c(nc(OC[C@@]56CCCN5C[C@H](F)C6)nc4c2F)N2C[C@H]4CC[C@H](N4)[C@H]2CO3)c2c(CC3CC3)c(F)ccc2c1 [Example 14, 5-(cyclopropylmethyl)-6-fluoro-4-((5aS,6S,9R)-1-fluoro-12-(((2R,7aS)-2-fluorotetrahydro-1H-pyrrolizin-7a(5H)-yl)methoxy)-5a,6,7,8,9,10-hexahydro-5H-4-oxa-3,10a,11,13,14-pentaaza-6,9-methanonaphtho[1,8-ab]heptalen-2-yl)naphthalen-2-ol] | 34 nM | 530 nM |
| C#Cc1c(F)ccc2cccc(-c3nc4c5c(nc(OCC67CCCN6CCC7)nc5c3F)N3C[C@H]5CC[C@H](N5)[C@@H]3[C@@H](C)C4)c12 [Example 157, (5S,5aS,6S,9R)-2-(8-ethynyl-7-fluoronaphthalen-1-yl)-1-fluoro-5-methyl-12-((tetrahydro-1H-pyrrolizin-7a(5H)-yl)methoxy)-4,5,5a,6,7,8,9,10-octahydro-3,10a,11,13,14-pentaaza-6,9-methanonaphtho[1,8-ab]heptalene] | 6.4 nM | 29.4 nM |
| C#Cc1c(F)ccc2cccc(-c3nc4c5c(nc(OC[C@@]67CCCN6[C@H](COc6cnc(C(F)F)cn6)CC7)nc5c3F)N3C[C@H]5CC[C@H](N5)[C@H]3CCC4)c12 [Example 200, (6aR,7S,10R)-13-(((3S,7aS)-3-(((5-(difluoromethyl)pyrazin-2-yl)oxy)methyl)tetrahydro-1H-pyrrolizin-7a(5H)-yl)methoxy)-2-(8-ethynyl-7-fluoronaphthalen-1-yl)-1-fluoro-5,6,6a,7,8,9,10,11-octahydro-4H-3,11a,12,14,15-pentaaza-7,10-methanocyclohepta[4,5]cycloocta[1,2,3-de]naphthalene] | 0.05 nM | 2.9 nM |
| C#Cc1c(F)ccc2cc(O)cc(-c3nc4c5c(nc(OCC6(CN7CC[C@@H](C(F)(F)F)C7)CC6)nc5c3F)N3C[C@H]5CC[C@H](N5)[C@H]3CC4)c12 [Example 70, 5-ethynyl-6-fluoro-4-((5aR,6S,9R)-1-fluoro-12-((1-(((R)-3-(trifluoromethyl)pyrrolidin-1-yl)methyl)cyclopropyl)methoxy)-4,5,5a,6,7,8,9,10-octahydro-3,10a,11,13,14-pentaaza-6,9-methanonaphtho[1,8-ab]heptalen-2-yl)naphthalen-2-ol] | 0.1 nM | 1 nM |
| C#Cc1c(F)ccc2cc(O)cc(-c3nc4c5c(nc(OCC6(CN7CCC(Oc8ccnc(C(F)(F)F)n8)CC7)CC6)nc5c3F)N3C[C@H]5CC[C@H](N5)[C@H]3CC4)c12 [Example 180, 5-ethynyl-6-fluoro-4-((5aR,6S,9R)-1-fluoro-12-((1-((4-((2-(trifluoromethyl)pyrimidin-4-yl)oxy)piperidin-1-yl)methyl)cyclopropyl)methoxy)-4,5,5a,6,7,8,9,10-octahydro-3,10a,11,13,14-pentaaza-6,9-methanonaphtho[1,8-ab]heptalen-2-yl)naphthalen-2-ol] | 0.8 nM | 5.1 nM |
| C#Cc1c(F)ccc2cc(O)cc(-c3cc4c5c(nc(OC[C@@]67CCCN6C[C@H](F)C7)nc5c3F)N3C[C@H]5CC[C@H](N5)[C@H]3CO4)c12 [Example 57, 5-ethynyl-6-fluoro-4-((5aS,6S,9R)-1-fluoro-13-(((2R,7aS)-2-fluorotetrahydro-1H-pyrrolizin-7a(5H)-yl)methoxy)-5a,6,7,8,9,1O-hexahydro-5H-6,9-epiminoazepino[2′,1′:3,4][1,4]oxazepino[5,6,7-de]quinazolin-2-yl)naphthalen-2-ol] | 0.6 nM | 28 nM |
| C#Cc1c(F)ccc2cc(O)cc(-c3nc4c5c(nc(OC[C@@]67CCCN6[C@H](COC(C(F)(F)F)(C(F)(F)F)C(F)(F)F)CC7)nc5c3F)N3C[C@H]5CC[C@H](N5)[C@H]3CC4)c12 [Example 63, 5-ethynyl-6-fluoro-4-((5aR,6S,9R)-1-fluoro-12-(((3S,7aS)-3-(((1,1,1,3,3,3-hexafluoro-2-(trifluoromethyl)propan-2-yl)oxy)methyl)tetrahydro-1H-pyrrolizin-7a(5H)-yl)methoxy)-4,5,5a,6,7,8,9,10-octahydro-3,10a,11,13,14-pentaaza-6,9-methanonaphtho[1,8-ab]heptalen-2-yl)naphthalen-2-ol] | 0.2 nM | 0.2 nM |
| C#Cc1c(F)ccc2cc(O)cc(-c3c(Cl)c4c5c(nc(OC[C@@]67CCCN6C[C@H](F)C7)nc5c3F)N3C[C@H]5CC[C@H](N5)[C@H]3CC4)c12 [Example 204, 4-((1S,4R,14aR)-12-chloro-10-fluoro-8-(((2R,7aS)-2-fluorotetrahydro-1H-pyrrolizin-7a(5H)-yl)methoxy)-1,2,3,4,5,13,14,14a-octahydro-1,4-epiminoazepino[1′,2′:1,7]azepino[2,3,4-de]quinazolin-11-yl)-5-ethynyl-6-fluoronaphthalen-2-ol] | 0.1 nM | 1.3 nM |
| C#Cc1c(F)ccc2cc(O)cc(-c3nc4c5c(nc(OCC6(CN7CCC[C@H](F)C7)CC6)nc5c3F)N3C[C@H]5CC[C@H](N5)[C@H]3CO4)c12 [Example 33, 5-ethynyl-6-fluoro-4-((5aS,6S,9R)-1-fluoro-12-((1-(((S)-3-fluoropiperidin-1-yl)methyl)cyclopropyl)methoxy)-5a,6,7,8,9,10-hexahydro-5H-4-oxa-3,10a,11,13,14-pentaaza-6,9-methanonaphtho[1,8-ab]heptalen-2-yl)naphthalen-2-ol] | 0.3 nM | 3 nM |
| Oc1cc(-c2nc3c4c(nc(OC[C@@]56CCCN5C[C@H](F)C6)nc4c2F)N2CC4CCC(N4)[C@@H]2CO3)c2ccccc2c1 (stereo in doubt) [Example 21, 4-((5aR,6S,9R)-1-fluoro-12-(((2R,7aS)-2-fluorotetrahydro-1H-pyrrolizin-7a(5H)-yl)methoxy)-5a,6,7,8,9,10-hexahydro-5H-4-oxa-3,10a,11,13,14-pentaaza-6,9-methanonaphtho[1,8-ab]heptalen-2-yl)naphthalen-2-ol] | 2100 nM | 3100 nM |
| Oc1cc(-c2nc3c4c(nc(OC[C@@]56CCCN5C[C@H](F)C6)nc4c2F)N2C[C@H]4CC[C@H](N4)[C@H]2CC3)c2c(OC3CC3)c(F)ccc2c1 [Example 37, 5-cyclopropoxy-6-fluoro-4-((5aR,6S,9R)-1-fluoro-12-(((2R,7aS)-2-fluorotetrahydro-1H-pyrrolizin-7a(5H)-yl)methoxy)-4,5,5a,6,7,8,9,10-octahydro-3,10a,11,13,14-pentaaza-6,9-methanonaphtho[1,8-ab]heptalen-2-yl)naphthalen-2-ol] | 1 nM | 9 nM |
